Assay results from ChEMBL document CHEMBL1126222, “Investigation of conformational specificity at GPIIb/IIIa: evaluation of conformationally constrained RGD peptides” (J Med Chem, 1992).

Experiments:
[1] = target: T1, Integrin alpha-IIb/beta-3 (Homo sapiens, UniProt P05106+P08514); test: Inhibition of [3H]Mba-(N-Me)Arg-Gly-Asp-Man binding to fibrinogen receptor of human platelets reconstituted in liposomes
[2] = target: T1, Integrin alpha-IIb/beta-3; test: Inhibition of [3H]Mba-(N-Me)Arg-Gly-Asp-Man binding to GPIIb/IIIa from human platelets reconstituted in liposomes
[3] = target: T1, Integrin alpha-IIb/beta-3; test: Inhibition of [3H]Mba-(N-Me)Arg-Gly-Asp-Man binding to Fibrinogen Receptor from human platelets reconstituted in liposomes

T1 sequence (P05106 27-788 limits assumed): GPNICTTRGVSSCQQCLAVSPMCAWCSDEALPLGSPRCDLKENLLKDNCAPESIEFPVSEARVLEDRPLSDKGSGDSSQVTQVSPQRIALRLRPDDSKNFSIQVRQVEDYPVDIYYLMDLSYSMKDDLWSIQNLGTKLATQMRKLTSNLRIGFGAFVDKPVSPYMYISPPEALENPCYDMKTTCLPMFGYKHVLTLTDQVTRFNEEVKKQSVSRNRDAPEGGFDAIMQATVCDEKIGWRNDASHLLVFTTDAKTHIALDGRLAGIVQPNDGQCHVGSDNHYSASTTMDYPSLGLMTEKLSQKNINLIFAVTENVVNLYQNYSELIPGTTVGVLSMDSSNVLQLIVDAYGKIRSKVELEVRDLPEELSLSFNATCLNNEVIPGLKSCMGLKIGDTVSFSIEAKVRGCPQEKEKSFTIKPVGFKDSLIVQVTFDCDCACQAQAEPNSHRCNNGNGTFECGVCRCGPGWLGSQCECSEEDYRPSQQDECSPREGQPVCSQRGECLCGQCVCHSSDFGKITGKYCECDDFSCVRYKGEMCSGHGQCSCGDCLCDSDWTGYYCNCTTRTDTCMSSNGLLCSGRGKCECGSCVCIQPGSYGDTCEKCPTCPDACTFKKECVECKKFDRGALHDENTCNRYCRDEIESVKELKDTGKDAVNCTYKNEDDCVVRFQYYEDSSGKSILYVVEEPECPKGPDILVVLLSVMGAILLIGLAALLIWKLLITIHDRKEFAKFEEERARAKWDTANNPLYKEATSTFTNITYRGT
T1 sequence (P08514 32-887 limits assumed): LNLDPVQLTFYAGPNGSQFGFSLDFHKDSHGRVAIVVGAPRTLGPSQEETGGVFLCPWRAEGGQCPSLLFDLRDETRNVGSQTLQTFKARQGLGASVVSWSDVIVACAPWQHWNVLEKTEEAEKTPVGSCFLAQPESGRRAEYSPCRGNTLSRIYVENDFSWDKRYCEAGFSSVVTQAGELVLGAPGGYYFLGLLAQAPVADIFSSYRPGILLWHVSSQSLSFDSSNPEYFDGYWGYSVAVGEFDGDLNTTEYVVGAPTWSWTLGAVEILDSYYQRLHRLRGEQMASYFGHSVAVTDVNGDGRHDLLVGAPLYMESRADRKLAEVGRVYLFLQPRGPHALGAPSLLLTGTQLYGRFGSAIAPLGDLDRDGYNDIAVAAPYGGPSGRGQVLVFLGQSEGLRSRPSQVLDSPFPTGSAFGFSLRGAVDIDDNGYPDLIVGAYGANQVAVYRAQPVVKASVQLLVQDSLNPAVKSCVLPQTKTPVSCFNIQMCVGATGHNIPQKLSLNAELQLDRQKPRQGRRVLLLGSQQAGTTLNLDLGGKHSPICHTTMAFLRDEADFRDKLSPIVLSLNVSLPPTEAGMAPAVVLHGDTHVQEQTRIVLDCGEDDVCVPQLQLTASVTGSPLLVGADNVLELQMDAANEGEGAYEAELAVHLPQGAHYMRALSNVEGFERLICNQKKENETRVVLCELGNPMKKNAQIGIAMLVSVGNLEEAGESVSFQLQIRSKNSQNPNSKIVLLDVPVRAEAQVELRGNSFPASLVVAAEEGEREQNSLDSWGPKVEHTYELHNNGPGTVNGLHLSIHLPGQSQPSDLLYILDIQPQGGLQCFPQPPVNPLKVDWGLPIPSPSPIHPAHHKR
T1 sequence (P08514 891-1039 limits assumed): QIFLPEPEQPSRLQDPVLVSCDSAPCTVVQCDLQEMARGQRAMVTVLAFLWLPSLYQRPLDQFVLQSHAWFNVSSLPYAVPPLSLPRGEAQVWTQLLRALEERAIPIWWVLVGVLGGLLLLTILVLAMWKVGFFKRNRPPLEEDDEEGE

`CN(C(=O)c1ccccc1S)[C@@H](CCCNC(=N)N)C(=O)NCC(=O)N[C@@H](CC(=O)O)C(=O)Nc1ccccc1S` was tested. Which Ki [1] did it give?
Its Ki is 0.004 µM.

For `CC(=O)N[C@@H](CS)C(=O)N(C)[C@@H](CCCN=C(N)N)C(=O)NCC(=O)N[C@@H](CC(=O)O)C(=O)N[C@H](C(N)=O)C(C)(C)S`, which Ki [1] is on record?
The Ki was 0.175 µM.

`N=C(N)NCCC[C@@H]1NC(=O)[C@@H]2CCCN2C(=O)CNC(=O)[C@H]2CCCN2C(=O)[C@H](CC(=O)O)NC(=O)CNC1=O` was tested. Which Ki [2] did it give?
The Ki was greater than 100 µM.

`CC(=O)N[C@@H](CS)C(=O)N[C@@H](CCCN=C(N)N)C(=O)NCC(=O)N[C@@H](CC(=O)O)C(=O)NC(C(N)=O)C(C)(C)S` (stereo in doubt) was tested. Which Ki [3] did it give?
Its Ki is 3.13 µM.

For `N=C(N)NCCC[C@@H]1NC(=O)[C@@H]2CCCN2C(=O)[C@@H](Cc2ccccc2)NC(=O)CNC(=O)[C@H](CC(=O)O)NC(=O)CNC1=O`, which Ki [2] is on record?
The Ki was 18.5 µM.

`CC(=O)N[C@@H](CS)C(=O)N[C@H](CCCN=C(N)N)C(=O)NCC(=O)N[C@@H](CC(=O)O)C(=O)N[C@H](C(N)=O)C(C)(C)S` was tested. Which Ki [1] did it give?
Its Ki is 3.3 µM.
